Assay results as given in ChEMBL document CHEMBL1156746, “New small molecule inhibitors of hepatitis C virus” (Bioorg Med Chem Lett, 2009).

Legend:
Hepatitis C virus [1] = test: Antiviral activity against HCV2a J6/JFH1 infected in Huh7-5 cells assessed as inhibition of core protein dimerization by RT PCR; assay type: functional, organism-based, Hepacivirus hominis, subtype 2a J6/JFH1
[2] = Cytotoxicity against human Huh7.5 cells; assay type: cell-based, Huh-7
Hepatitis C virus [3] = test: Antiviral activity against HCV2a J6/JFH1 infected in Huh7-5 cells at early T1 stage assessed as inhibition of core protein dimerization by RT PCR; assay type: functional, organism-based, Hepacivirus hominis; conditions: subtype 2a J6/JFH1, Huh7.5
Hepatitis C virus [4] = test: Antiviral activity against HCV2a J6/JFH1 infected in Huh7-5 cells at late T2 stage assessed as inhibition of core protein dimerization by RT PCR; assay type: functional, organism-based, Hepacivirus hominis; conditions: subtype 2a J6/JFH1, Huh7.5
[5] = Hepatitis C virus, subtype 2a J6/JFH1, Huh7.5, read-out: IC50

Row | Compound | IC50 (Hepatitis C virus [1]; [5]) [µM] | EC50 (Hepatitis C virus [3]) [µM] | EC50 (Hepatitis C virus [4]) [µM] | CC50 ([2]; Huh7.5 cells) [µM] | IC50 (Hepatitis C virus [1]; huh7-5) | CC50 ([2]; huh-7) [µM]
1 | CC#CCN1c2ccc(OC)cc2[C@]23CCC(=O)N(CCOC)C2=NC(C(=O)OC)=C(C(=O)OC)C13 (mixture of isomers) | 2 | 4.9 | 0.7 | > 320 | – | –
2 | COc1ccc2c(O[C@@H]3C[C@H]4C(=O)N[C@]5(C(=O)O)C[C@H]5/C=C\CCCCC[C@H](NC(=O)OC5CCCC5)C(=O)N4C3)cc(-c3csc(NC(C)C)n3)nc2c1 [CILUPREVIR] | – | 0.072 | 0.071 | – | Not Active | 5.3

Continued by falling IC50 (Hepatitis C virus [1]; [5]), values first:

Row | IC50 (Hepatitis C virus [1]; [5]) [µM] | EC50 (Hepatitis C virus [3]) [µM] | EC50 (Hepatitis C virus [4]) [µM] | Compound | CC50 ([2]; Huh7.5 cells) [µM] | IC50 (Hepatitis C virus [1]; huh7-5) | CC50 ([2]; huh-7) [µM]
3 | 9.3 | 14.8 | 22.2 | COC(=O)C1=C(C(=O)OC)C2N(C)c3ccc(OC)cc3[C@@]23C[C@@H](C(=O)OC)N(C(=O)CC(C)C)C3=N1 (mixture of isomers) | > 320 | – | –
4 | 2 | 3.8 | 3 | C=CCN1c2ccc(OC)cc2[C@]23CCC(=O)N(Cc4cc(OC)c(OC)c(OC)c4)C2=NC(C(=O)OC)=C(C(=O)OC)C13 (mixture of isomers) | 5.3 | – | –
5 | 1.4 | 2.3 | 3.2 | C=CCN1c2ccc(OC)cc2[C@]23CCC(=O)N(Cc4ccccc4)C2=NC(C(=O)OC)=C(C(=O)OC)C13 (mixture of isomers) | 127 | – | –
